Source: the COVID Moonshot data (paper PMC7615835)
Where “and” joins values, the source holds several entries; their conditions need not be identical. Identical values can stand only once.

These compounds were tested against SARS-CoV-2 Main Protease (SARS-CoV-2) (UniProt P0DTD1).

Row | Compound | IC50
1 | CC(CNc1ccc2nnnn2n1)c1nc2ccccc2s1 (configuration not stated) | > 99.5 µM
2 | O=C1C(=O)N(Cc2ccccc2)c2ccc([N+](=O)[O-])cc21 | > 99.5 µM
3 | CN(Cc1cccc2ccccc12)c1cc(Cl)cc(CC(=O)Nc2cncc3ccccc23)c1 | 8.79 µM
4 | COc1cccc2[nH]c(=O)cc(C(=O)N3CCN(c4cccc(Cl)c4)CC3)c12 | 4.68 µM
5 | O=C(CCl)N1CCN(S(=O)(=O)c2ccsc2)CC1 | 1.63 µM
6 | O=C(NCCc1cccc(F)c1)C(c1cccnc1)N(C(=O)c1cocn1)C1CCN(c2ccccc2)C1 (configuration not stated) | > 99.5 µM
7 | Cc1ccc(S(=O)(=O)N2CCN(C(=O)c3cc(=O)[nH]c4cc(F)ccc34)CC2)c(C)c1 | > 99.5 µM
8 | CC(C)(C)c1ccc(N(C(=O)c2cocn2)C(C(=O)NCC(=O)OCc2ccccc2)c2cccnc2)cc1 (configuration not stated) | 9.92 µM
9 | O=[N+]([O-])c1cnc(Sc2nnc(-c3ccc(Cl)cc3)o2)s1 | 0.881 µM
10 | Cc1noc(C)c1CCNC(=O)Nc1cn(CC(C)C)c(=O)c2ccccc12 | 27.7 µM
11 | N#CC1(CS(=O)(=O)N2Cc3ccc(Cl)cc3C(C(=O)Nc3nncn3C3CC3)C2)CC1 (configuration not stated) | 55.3 µM
12 | CCOc1ccc(N(C(=O)c2cocn2)C(C(=O)NCCc2cccc(F)c2)c2cccnc2)cn1 (configuration not stated) | > 99.5 µM
13 | O=C(NCCc1cccc(F)c1)C(c1cccnc1)N(C(=O)c1ccco1)[C@H]1C[C@H](c2cc(F)cc(F)c2)C1 (some centres not stated) | > 99.5 µM
14 | CCNc1ncc(C#N)cc1CN1CCN(C(=O)CCl)CC1 | 3.22 µM
15 | NCc1cn(CC(=O)N(Cc2cscn2)c2ccc(-c3ccccc3)nc2)nn1 | > 99.5 µM
16 | O=C(CCl)N1CCN(S(=O)(=O)c2cccc(F)c2)CC1 | 4.1 µM and 5.05 µM and 2.38 µM
17 | CNC(=O)CN1C[C@@]2(CC(=O)N(c3cncc4ccccc34)C2=O)c2cc(Cl)ccc2C1=O (stereo in doubt) | 0.123 µM
18 | C1=C(c2c[nH]c3ccccc23)CCN(Cc2ccno2)C1 | > 99.5 µM
19 | CC(C)(C)OC(=O)CNC(=O)C(c1cccnc1)N(C(=O)c1cocn1)c1ccc(C(C)(C)C)cc1 (configuration not stated) | 8.18 µM

Row | Compound | IC50
20 | CC(=O)c1ccc(N(C(=O)c2ccco2)C(C(=O)NCCc2cccc(F)c2)c2cccnc2)cc1 (configuration not stated) | 56.3 µM
21 | CC(C)(C)c1ccc(N(C(=O)CCC#N)C(C(=O)NCCc2cccc(F)c2)c2cccnc2)cc1 (configuration not stated) | 3.8 µM
22 | C=CC(=O)Nc1ccc(O)c(C(=O)NC[C@@H](O)c2ccc3ccccc3c2)c1 (stereo in doubt) | > 99.5 µM
23 | CC(=O)C(=O)N1CCN(Cc2cccc(Cl)c2)[C@@H](CC(C)C)C1 (stereo in doubt) | > 99.5 µM
24 | O=C(Cc1cc(Cl)cc(-n2c(C3CCNCC3)nc3ccccc32)c1)Nc1cncc2ccccc12 | 2.24 µM
25 | O=C1CC(c2ccc(N(C(=O)c3cocn3)C(C(=O)NCCc3cccc(F)c3)c3cccnc3)cc2)CC(=O)N1 (configuration not stated) | 53.8 µM
26 | C[C@H](C(=O)O)C(=O)SCCNC(=O)CCNC(=O)[C@H](O)C(C)(C)COP(=O)(O)OP(=O)(O)OC[C@H]1O[C@@H](n2cnc3c(N)ncnc32)[C@H](O)[C@@H]1OP(=O)(O)O (stereo in doubt) | > 99 µM
27 | O=C(O)[C@@H](c1ccccc1)N1Cc2ccccc2C1=O (stereo in doubt) | 1.78 µM
28 | Cc1ccc2cccc(Nc3cc(Cl)cc(CC(=O)Nc4cncc5ccccc45)c3)c2n1 | 4.93 µM
29 | O=C(Nc1ccc(N(Cc2ccsc2)C(=O)Cn2nnc3ccccc32)cc1)C1CC1 | 3.99 µM
30 | CS(=O)(=O)Nc1ccc2cncc(NC(=O)C3CNC(=O)c4ccc(Cl)cc43)c2c1 (configuration not stated) | 0.195 µM
31 | C=CC(=O)N(c1ccc(C(C)(C)C)cc1)C(C(=O)NCC1CCCO1)c1cccnc1 (configuration not stated) | 90.5 µM
32 | Cn1c(=O)[nH]c(=O)c2ccc(C(=O)N(c3ccc(C(C)(C)C)cc3)C(C(=O)NCCc3cccc(F)c3)c3cccnc3)nc21 (configuration not stated) | > 99.5 µM
33 | O=C(Cc1cccc(Cl)c1)NC1C(=O)Nc2ccccc21 (configuration not stated) | > 99.5 µM
34 | Cc1ccc(Nc2cc(Cl)cc(CC(=O)Nc3cncc4ccccc34)c2)cc1I | 2.07 µM
35 | COc1ccc(-c2cc(N)n(-c3cc(Cl)cc(CC(=O)Nc4cncc5ccccc45)c3)n2)cc1 | 2.71 µM
36 | O=C(Nc1cncn1-c1cccnc1)C1CCOc2ccc(Cl)cc21 (configuration not stated) | > 99.5 µM
37 | O=C(Cc1cc(Cl)cc(NC(c2ccccc2)c2ccccc2)c1)Nc1cncc2ccccc12 | 3.36 µM
